This is an account of results in PMC8250858, “A Systematic Study of the Stability, Safety, and Efficacy of the de novo Designed Antimicrobial Peptide PepD2 and Its Modified Derivatives Against Acinetobacter baumannii” (Frontiers in Microbiology, 2021).

One data set in a line: Hemolytic assay. In kind it is cell-based, rat. The following applies: rat red blood cells, 256 μg/mL peptide, 37°C 45 min; read-out: Hemolysis (%) at 256 μg/mL. Here is the method:
The blood cells were washed three times with PBS, where the volume of PBS was the same as that of the original blood, by gently turning the centrifuge tube upside down. After washing, ten microliters of blood cells were diluted 2,000-fold in PBS to count the cells. Finally, red blood cells were diluted to 5 × 10^8 cells/mL in PBS. Peptides were dissolved in water and filtered through a 0.2-μm filter to make a stock solution. The peptide concentration was quantitated by the UV280. The peptide solution was diluted in PBS to different concentrations (five times the tested concentrations). Twenty microliters of the peptide in PBS was mixed with 80 μL of red blood cell solution in a 96-well plate (V-bottom). The final peptide concentration was 16–256 μg/mL. In the positive control group, 20 μL of 5% Triton X-100 was added to the red blood cell solution for a final Triton X-100 concentration of 1%. For the negative control group, 20 μL of PBS solution was added. The 96-well plate was incubated at 37°C for 45 min. After centrifuging the 96-well plate at 1,500 × g for 5 min, 30 μL of the supernatant was mixed with 100 μL of deionized water in a 96-well plate (flat bottom). The concentration of heme in each well was measured by the UV405 using an Infinite M1000 pro (Tecan Austria GmbH, Austria). The hemolytic activity was calculated using the following formula. Hemolyticactivity=[(F-F0)/(Ft-F0)]×100% F is the UV405 of the peptide-treated sample F0 is the UV405 of the sample without peptide (negative control) Ft is the UV405 of the Triton-treated sample (positive control)

Data set [1] has as its system A. baumannii (ATCC 17978). In kind it is cell-based, Acinetobacter baumannii. The conditions noted are these: ex vivo rat blood, 4 μg/mL of each peptide. Here is the method: The time-kill kinetics measurement against A. baumannii (ATCC 17978) in blood was conducted following a protocol modified from the literature ([Nagarajan et al., 2019]). […] Then, 4 μL of the peptide stock solution to be tested (2,035 μg/mL in water) was added to make the final bacterial cell number 10^7 CFU/mL and the final peptide concentration 4 μg/mL (assigned as tube A). At 2, 4, 6, 8, 10, 20, 30, 40, 50, and 60 min, 100 μL of the bacteria/blood mixture was removed from tube A and mixed with 100 μL of sterilized 2 M NaCl/50% glycerol (twofold dilution, assigned as tube B). […] Ten microliters of the mixture from tube B were mixed with 990 μL of sterilized 1 M NaCl (200-fold dilution, assigned as tube C). Ten microliters of the mixture from tube C was mixed with 90 μL of sterilized 1 M NaCl (2,000-fold dilution, assigned as tube D). Finally, ten or one hundred microliters of solution from each tube was plated on an MHA plate and incubated at 37°C overnight to count the colony number. To test whether freezing in liquid nitrogen kills part of the bacteria, pepdD2 was tested with and without freezing. […] At 0 and 60 min, the bacterial number was measured as described above. […] At the indicated time points, an aliquot of the sample was removed and diluted, and the remaining cell number was counted by plating on MHA plates. The data are expressed as the mean ± SD. […]

The test system of the next data set is A. baumannii 17978. The data set is described as follows: Time-kill kinetics assay in MHB. In kind it is cell-based, Acinetobacter baumannii. The following applies: 37°C with shaking, 4 μg/mL for both peptides. Here is the method: FIGURE 4 Time-kill kinetics assay. […] This experiment was performed in ex vivo whole rat blood at room temperature without shaking. A. baumannii (final concentration of 10^7 CFU/mL) was incubated with or without peptide (4 μg/mL) for 60 min. At the indicated time points, an aliquot of the sample was removed and diluted, and the remaining cell number was counted by plating on MHA plates. The data are expressed as the mean ± SD. […] A. baumannii (final concentration of 10^7 CFU/mL) was incubated with or without peptide at 37°C with shaking. The peptide concentration was 4 μg/mL for both peptides.

A short description of another data set: in vitro. In kind it is in vitro ADME, rat. The conditions noted are these: rat, plasma, rat plasma, room temperature. Here is the method: EDTA-treated rat whole blood was centrifuged at 4°C and 840 × g for 5 min, and then the blood cells were removed ([[…] et al., 2019]). The supernatant was placed in an Eppendorf tube and centrifuged at 4°C and 13,000 rpm for 10 min to remove lipids (white precipitate). The supernatant was filtered through a 0.2-μm filter. The peptide was dissolved in water and filtered through a 0.2-μm filter. The peptide concentration was quantified by the UV280 to make a 1 mg/mL stock solution. […] At the indicated time, the peptide was analyzed by HPLC with a C18 column using a linear gradient of 20-65% B over 15 min. Solution A: 5% acetonitrile plus 0.1% trifluoroacetic acid in water; solution B: 0.1% trifluoroacetic acid in acetonitrile.

As for Ac-WKKIKKIIKKIKKI-NH2 [pepI2], the hemolysis at 45 min, 256 μg/mL in the data set “Hemolytic assay” amounted to 0.27%. In addition, the “Killing rate compared” value in data set [1] was “killed bacteria faster than pepdD2”; with A. baumannii 17978, “killed A. baumannii faster than colistin sulfate”. For the same substance, the half-life at 0.6 mg/mL in the data set “in vitro” was 11.2 h.

What is called half-life is how long it takes for the measured level to halve. A lower half-life goes with rapid decline.
